test system: Salmonella typhimurium; test: Compound was tested in Ames test using Salmonella Typhimurium (TA-92). C is the molar concentration of compound producing 30 mutations/(10e 8) bacteria delivered; format: functional, organism-based; details: Salmonella enterica subsp. enterica serovar Typhimurium

Substance	Log 1/C
0-Phenylene-1,3-diamine-platinum 2,2-dichloride-3,4,5-trichloro	7.73
4,5-benzoPhenylene-1,3-diamine-platinum 2,2-dichloride-	5.92
Phenylene-1,3-diamine-platinum 2,2-dichloride-4,5-dimethoxy	4.64
0-Phenylene-1,3-diamine-platinum 2,2-dichloride-4,5-dichloro	6.89
0-Hexyl-1,3-diamine-platinum 2,2-dichloride	4.22
0-Phenylene-1,3-diamine-platinum 2,2-dichloride-4-benzoyl	7.52
0-Phenylene-1,3-diamine-platinum 2,2-dichloride-4-ethoxy	5.6
0-Phenylene-1,3-diamine-platinum 2,2-dichloride-4-methoxy	5.65
CISPLATIN	4.52
0-Phenylene-1,3-diamine-platinum 2,2-dichloride-4-carboxylic acid methyl ester	7
0-Phenylene-1,3-diamine-platinum 2,2-dichloride-4-methyl	5.6
0-Phenylene-1,3-diamine-platinum 2,2-dichloride-4-nitro	8.65

Reference: ChEMBL document CHEMBL1121592, “Mutagenicity of substituted (o-phenylenediamine)platinum dichloride in the Ames test. A quantitative structure-activity analysis” (J Med Chem, 1980)
